Where a SMILES comes first, the peptide text is derived from it. Bridges are numbered along the chain shown (N, C = ends). [ ]: non-standard residue; d: D form. The star is where a group is joined. ξ: configuration not given here. Bip = N[C@@H](Cc1ccc(-c2ccccc2)cc1)C(=O)O; Phe(3-Me) = Cc1cccc(C[C@H](N)C(=O)O)c1; hArg = N=C(N)NCCCC[C@H](N)C(=O)O; Cha = N[C@@H](CC1CCCCC1)C(=O)O; Cit = NC(=O)NCCC[C@H](N)C(=O)O; Thr(3ξ) = CC(O)[C@H](N)C(=O)O; Carboxymethyl = O=C(O)C*; Orn = NCCC[C@H](N)C(=O)O; Dab = NCC[C@H](N)C(=O)O; ξV = CC(C)C(N)C(=O)O; ξS = NC(CO)C(=O)O
Each compound was assayed against T1, human PD-1 / PD-L1-Ig binding on Jurkat cell line over-expressing human PD-1 (Jurkat-PD-1) (Homo sapiens, UniProt Q15116) (assay: Jurkat-PD-1 Cell Binding High-Content Screening Assay (CBA)). Conditions: Jurkat-PD-1 cells, PE-labeled PD-L1-Ig 20 nM final; read-out: Jurkat HPD1_PDL1 IC50.
T1 construct: expressed in transfected cells; host or cells: Jurkat
T1 sequence (Q15116 25-288): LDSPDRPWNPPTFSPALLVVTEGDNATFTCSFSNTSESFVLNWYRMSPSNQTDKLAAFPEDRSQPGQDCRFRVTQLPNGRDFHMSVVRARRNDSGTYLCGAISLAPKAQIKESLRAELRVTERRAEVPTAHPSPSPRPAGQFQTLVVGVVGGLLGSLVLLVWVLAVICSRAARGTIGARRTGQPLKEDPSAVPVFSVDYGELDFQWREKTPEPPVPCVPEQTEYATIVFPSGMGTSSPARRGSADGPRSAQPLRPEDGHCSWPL
Type: cell-based
Outline: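 PE-PD-L1-Ig 20 nM final; cells in DMEM/10% FCS; cpd pre-incubation 2 h, 37° C; ligand 1 h; PFA fix + Hoechst 33342; high-content imaging read-out.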
`Cc1cccc(C[C@@H]2NC(=O)[C@H](CC(=O)O)NC(=O)[C@H](Cc3ccc(OCC(=O)O)cc3)NC(=O)[C@H](CCCCNC(=N)N)NC(=O)CSC[C@@H](C(=O)N[C@@H](CCCN)C(=O)NC(CO)C(N)=O)NC(=O)[C@H](CO)NC(=O)C(C(C)C)NC(=O)[C@H](CC3CCCCC3)NC(=O)[C@H](CCN)NC(=O)[C@@H](CC(C)C)NC(=O)[C@H](CCCN)NC(=O)[C@H](CCCNC(N)=O)NC(=O)[C@H](Cc3ccc(-c4ccccc4)cc3)NC(=O)[C@H](C(C)C)NC2=O)c1` (stereo partly drawn) [Compound 2592] ({CH2CO}-[hArg]Y(Carboxymethyl)D[Phe(3-Me)]V[Bip][Cit][Orn][dL][Dab][Cha][ξV]SC[Orn][ξS]-NH2; thioether N-14) showed an IC50 of 15.3 nM.
Compound `Cc1cccc(C[C@@H]2NC(=O)[C@H](CC(=O)O)NC(=O)[C@H](Cc3ccc(OCC(=O)O)cc3)NC(=O)[C@H](CCCCNC(=N)N)NC(=O)CSC[C@@H](C(=O)N[C@@H](CO)C(=O)N[C@@H](CCCCN)C(N)=O)NC(=O)[C@H](CO)NC(=O)[C@H](C(C)C)NC(=O)[C@H](CC3CCCCC3)NC(=O)[C@H](CCN)NC(=O)[C@@H](CC(C)C)NC(=O)[C@H](CCCN)NC(=O)[C@H](CCCNC(N)=O)NC(=O)[C@H](Cc3ccc(-c4ccccc4)cc3)NC(=O)[C@H](C(C)C)NC2=O)c1` [Compound 2593] ({CH2CO}-[hArg]Y(Carboxymethyl)D[Phe(3-Me)]V[Bip][Cit][Orn][dL][Dab][Cha]VSCSK-NH2; thioether N-14) has an IC50 of 3.9 nM.
`Cc1cccc(C[C@@H]2NC(=O)[C@H](CC(=O)O)NC(=O)[C@H](Cc3ccc(OCC(=O)O)cc3)NC(=O)[C@H](CCCCNC(=N)N)NC(=O)CSC[C@@H](C(=O)N[C@@H](CCCCN)C(=O)N[C@@H](CO)C(N)=O)NC(=O)[C@H](CO)NC(=O)[C@H](C(C)C)NC(=O)[C@H](CC3CCCCC3)NC(=O)[C@H](CCN)NC(=O)[C@@H](CC(C)C)NC(=O)[C@H](CCCN)NC(=O)[C@H](CCCNC(N)=O)NC(=O)[C@H](Cc3ccc(-c4ccccc4)cc3)NC(=O)[C@H](C(C)C)NC2=O)c1` [Compound 2594] ({CH2CO}-[hArg]Y(Carboxymethyl)D[Phe(3-Me)]V[Bip][Cit][Orn][dL][Dab][Cha]VSCKS-NH2; thioether N-14) gave an IC50 of 13.1 nM.
Work on `CC(=O)NCCCC[C@@H]1NC(=O)CSC[C@@H](C(=O)N[C@@H](CO)C(N)=O)NC(=O)[C@H](C(C)O)NC(=O)[C@H](C(C)C)NC(=O)[C@H](CC2CCCCC2)NC(=O)[C@H](CCN)NC(=O)[C@@H](CC(C)C)NC(=O)[C@H](CCCN)NC(=O)[C@H](CCCNC(N)=O)NC(=O)[C@H](Cc2ccc(-c3ccccc3)cc2)NC(=O)[C@H](C(C)C)NC(=O)[C@H](Cc2cccc(C)c2)NC(=O)[C@H](CC(=O)O)NC(=O)[C@H](Cc2ccc(OCC(=O)O)cc2)NC1=O` (stereo partly drawn) [Compound 2595] ({CH2CO}-K(Ac)Y(Carboxymethyl)D[Phe(3-Me)]V[Bip][Cit][Orn][dL][Dab][Cha]V[Thr(3ξ)]CS-NH2; thioether N-14) yielded an IC50 of 9.9 nM.
`Cc1cccc(C[C@@H]2NC(=O)[C@H](CC(=O)O)NC(=O)[C@H](Cc3ccc(OCC(=O)O)cc3)NC(=O)[C@H](CCCNC(=N)N)NC(=O)CSC[C@@H](C(=O)N[C@@H](CO)C(N)=O)NC(=O)[C@H](CO)NC(=O)[C@H](C(C)C)NC(=O)[C@H](CC3CCCCC3)NC(=O)[C@H](CCCNC(=N)N)NC(=O)[C@@H](CC(C)C)NC(=O)[C@H](CCCN)NC(=O)[C@H](CCCNC(N)=O)NC(=O)[C@H](Cc3ccc(-c4ccccc4)cc3)NC(=O)[C@H](C(C)C)NC2=O)c1` [Compound 2597] ({CH2CO}-RY(Carboxymethyl)D[Phe(3-Me)]V[Bip][Cit][Orn][dL]R[Cha]VSCS-NH2; thioether N-14) showed an IC50 of 12.9 nM.
Compound `Cc1cccc(C[C@@H]2NC(=O)[C@H](CC(=O)O)NC(=O)[C@H](Cc3ccc(OCC(=O)O)cc3)NC(=O)[C@H](CCCNC(=N)N)NC(=O)CSC[C@@H](C(=O)N[C@@H](CO)C(N)=O)NC(=O)[C@H](CO)NC(=O)[C@H](C(C)O)NC(=O)[C@H](CC3CCCCC3)NC(=O)[C@H](CCN)NC(=O)[C@@H](CC(C)C)NC(=O)[C@H](CCCN)NC(=O)[C@H](CCCNC(N)=O)NC(=O)[C@H](Cc3ccc(-c4ccccc4)cc3)NC(=O)[C@H](C(C)C)NC2=O)c1` (stereo partly drawn) [Compound 2598] ({CH2CO}-RY(Carboxymethyl)D[Phe(3-Me)]V[Bip][Cit][Orn][dL][Dab][Cha][Thr(3ξ)]SCS-NH2; thioether N-14) has an IC50 of 14 nM.
Compound `CC(C)C[C@H]1NC(=O)[C@H](CCCN)NC(=O)[C@H](C(C)C)NC(=O)[C@H](Cc2ccc(-c3ccccc3)cc2)NC(=O)[C@H](C(C)C)NC(=O)[C@H](Cc2c[nH]c3ccccc23)NC(=O)[C@H](CC(=O)O)NC(=O)[C@H](Cc2ccc(OCC(=O)O)cc2)NC(=O)[C@H](C(C)O)NC(=O)CSC[C@@H](C(N)=O)NC(=O)[C@H](C(C)O)NC(=O)[C@H](C(C)C)NC(=O)[C@H](CC2CCCCC2)NC(=O)[C@H](CCN)NC1=O` (stereo partly drawn) [Compound 2599] ({CH2CO}-[Thr(3ξ)]Y(Carboxymethyl)DWV[Bip]V[Orn][dL][Dab][Cha]V[Thr(3ξ)]C-NH2; thioether N-14) has an IC50 of 17.8 nM.
`CC(C)C[C@H]1NC(=O)[C@H](CCCN)NC(=O)[C@H](C(C)C)NC(=O)[C@H](Cc2ccc(-c3ccccc3)cc2)NC(=O)[C@H](C(C)C)NC(=O)[C@H](Cc2c[nH]c3ccccc23)NC(=O)[C@H](CC(=O)O)NC(=O)[C@H](Cc2ccc(OCC(=O)O)cc2)NC(=O)[C@H](C(C)O)NC(=O)CSC[C@@H](C(=O)N[C@@H](CCN)C(N)=O)NC(=O)[C@H](C(C)O)NC(=O)[C@H](C(C)C)NC(=O)[C@H](CC2CCCCC2)NC(=O)[C@H](CCN)NC1=O` (stereo partly drawn) [Compound 2601] ({CH2CO}-[Thr(3ξ)]Y(Carboxymethyl)DWV[Bip]V[Orn][dL][Dab][Cha]V[Thr(3ξ)]C[Dab]-NH2; thioether N-14) was tested, and the IC50 was 12.6 nM.
`CC(C)C[C@H]1NC(=O)[C@H](CCCN)NC(=O)[C@H](C(C)C)NC(=O)[C@H](Cc2ccc(-c3ccccc3)cc2)NC(=O)[C@H](C(C)C)NC(=O)[C@H](Cc2c[nH]c3ccccc23)NC(=O)[C@H](CC(=O)O)NC(=O)[C@H](Cc2ccc(OCC(=O)O)cc2)NC(=O)[C@H](C(C)O)NC(=O)CSC[C@@H](C(=O)N[C@@H](CO)C(=O)O)NC(=O)[C@H](C(C)O)NC(=O)[C@H](C(C)C)NC(=O)[C@H](CC2CCCCC2)NC(=O)[C@H](CCN)NC1=O` (stereo partly drawn) [Compound 2603] ({CH2CO}-[Thr(3ξ)]Y(Carboxymethyl)DWV[Bip]V[Orn][dL][Dab][Cha]V[Thr(3ξ)]CS-OH; thioether N-14) gave an IC50 of 17.6 nM.
`CC(C)C[C@@H]1NC(=O)[C@H](Cc2c[nH]c3ccccc23)NC(=O)[C@H](CC(=O)O)NC(=O)[C@H](Cc2ccc(OCC(=O)O)cc2)NC(=O)[C@H](C(C)O)NC(=O)CSC[C@@H](C(N)=O)NC(=O)[C@H](CO)NC(=O)[C@H](C(C)C)NC(=O)[C@H](CC2CCCCC2)NC(=O)[C@H](Cc2cnc[nH]2)NC(=O)[C@@H](CC(C)C)NC(=O)[C@H](Cc2cnc[nH]2)NC(=O)[C@H](C(C)C)NC(=O)[C@H](Cc2ccc(-c3ccccc3)cc2)NC1=O` (stereo partly drawn) [Compound 2604] ({CH2CO}-[Thr(3ξ)]Y(Carboxymethyl)DWL[Bip]VH[dL]H[Cha]VSC-NH2; thioether N-14) gave an IC50 of 234 nM.
`Cc1cccc(C[C@@H]2NC(=O)[C@H](CC(=O)O)NC(=O)[C@H](Cc3ccc(OCC(=O)O)cc3)NC(=O)[C@H](C(C)O)NC(=O)CSC[C@@H](C(N)=O)NC(=O)[C@H](C(C)O)NC(=O)[C@H](C(C)C)NC(=O)[C@H](CC3CCCCC3)NC(=O)[C@H](CCN)NC(=O)[C@@H](CC(C)C)NC(=O)[C@H](CCCN)NC(=O)[C@H](C(C)C)NC(=O)[C@H](Cc3ccc(-c4ccccc4)cc3)NC(=O)[C@H](C(C)C)NC2=O)c1` (stereo partly drawn) [Compound 2605] ({CH2CO}-[Thr(3ξ)]Y(Carboxymethyl)D[Phe(3-Me)]V[Bip]V[Orn][dL][Dab][Cha]V[Thr(3ξ)]C-NH2; thioether N-14) was tested, and the IC50 was 18.9 nM.
`CC(=O)NCCCC[C@@H]1NC(=O)[C@H](Cc2ccc(-c3ccccc3)cc2)NC(=O)[C@H](CC(C)C)NC(=O)[C@H](Cc2c[nH]c3ccccc23)NC(=O)[C@H](CC(=O)O)NC(=O)[C@H](Cc2ccc(OCC(=O)O)cc2)NC(=O)[C@H](C(C)O)NC(=O)CSC[C@@H](C(N)=O)NC(=O)[C@H](C(C)O)NC(=O)[C@H](C(C)C)NC(=O)[C@H](CC2CCCCC2)NC(=O)[C@H](CCC(=O)O)NC(=O)[C@@H](CC(C)C)NC(=O)[C@H](CCC(=O)O)NC1=O` (stereo partly drawn) [Compound 2607] ({CH2CO}-[Thr(3ξ)]Y(Carboxymethyl)DWL[Bip]K(Ac)E[dL]E[Cha]V[Thr(3ξ)]C-NH2; thioether N-14) was tested, and the IC50 was 389 nM.
Work on `CC(C)C[C@@H]1NC(=O)[C@H](Cc2c[nH]c3ccccc23)NC(=O)[C@H](CC(=O)O)NC(=O)[C@H](Cc2ccc(OCC(=O)O)cc2)NC(=O)[C@H](C(C)O)NC(=O)CSC[C@@H](C(N)=O)NC(=O)[C@H](CO)NC(=O)[C@H](C(C)C)NC(=O)[C@H](CC2CCCCC2)NC(=O)[C@H](CCC(=O)O)NC(=O)[C@@H](CC(C)C)NC(=O)[C@H](Cc2cnc[nH]2)NC(=O)[C@H](C(C)C)NC(=O)[C@H](Cc2ccc(-c3ccccc3)cc2)NC1=O` (stereo partly drawn) [Compound 2608] ({CH2CO}-[Thr(3ξ)]Y(Carboxymethyl)DWL[Bip]VH[dL]E[Cha]VSC-NH2; thioether N-14) yielded an IC50 of 118 nM.

Same assay, conditions: read-out: Jurkat HPD1_PDL1 IC50; Jurkat-PD-1 cells, PE-labeled PD-L1-Ig 20 nM final
`CC(=O)NCC[C@@H]1NC(=O)[C@H](Cc2ccc(-c3ccccc3)cc2)NC(=O)[C@H](C(C)C)NC(=O)[C@H](Cc2c[nH]c3ccccc23)NC(=O)[C@H](CC(=O)O)NC(=O)[C@H](Cc2ccc(OCC(=O)O)cc2)NC(=O)[C@H](C(C)O)NC(=O)CSC[C@@H](C(N)=O)NC(=O)[C@H](C(C)O)NC(=O)[C@H](C(C)C)NC(=O)[C@H](CC2CCCCC2)NC(=O)[C@H](CCN)NC(=O)[C@@H](CC(C)C)NC(=O)[C@H](CCCN)NC1=O` (stereo partly drawn) [Compound 2606] ({CH2CO}-[Thr(3ξ)]Y(Carboxymethyl)DWV[Bip][Dab](Ac)[Orn][dL][Dab][Cha]V[Thr(3ξ)]C-NH2; thioether N-14) was tested, and the IC50 was 76.4 nM.
